# Data taken from publication PMC7136958, “Targeting the pregnane X receptor using microbial metabolite mimicry” (EMBO Molecular Medicine, 2020).
# Where “and” joins values, the source holds several entries; their conditions need not be identical. Equal values may be shown once. Read-outs that look alike come from different tables or passages of the source.
# Assays:
# Cyp3a11 = experiment: PXR target gene expression in hPXR mice (mice expressing the human PXR gene) after FKK6 gavage; type: in vivo, mouse; conditions: both sexes, C57BL/6-Nr1i2tm1(NR1I2)Arte (hPXR mice), mouse, 500 μM, 5 doses (60 h), individual mice
# Method: (§1) (Scheer et al, 2010) were administered 10% DMSO (n = 3) or FKK6 (n = 3) in 3 or 5 doses, with each dose interval of 12 h. Each gavage dose volume was 100 μl. 2–4 h after the dosing period, mice were sacrificed, and tissues were harvested for further analysis. The mouse studies were performed three independent times over an 18‐month period. All purchased mice were acclimatized in the Einstein vivarium for ~ 2 weeks before experiments started. […]. The room temperature was maintained at 25 ± 2°C with 55 ± 5% humidity. All studies were approved by the Institute of Animal Studies at the Albert Einstein College of Medicine, INC (IACUC # 20160706, 20160701 and preceding protocols), and specific animal protocols were also approved by additional protocols (IACUC# 20170406, 20170504) and Animal Care and Use Review Office (ACURO) of the US Army Medical Research and Materiel Command (PR160167, W81XWH‐17‐1‐0479). […]
# (§2) Mouse small, large intestine and liver samples were collected and total RNAs were […]
# (§3) isolated. […] Each tissue PCR was […]
# (§4) repeated in quadruplicate. The expression was normalized to internal control, GAPDH. ( b,d) The histograms show mean (95 %CI) values, c, mean (SD) and two way ANOVA followed with Tukey's post hoc test. The entire experiment was repeated n = 3 for reproducibility. The data shown is one representative experiment .
# mdr1 = experiment: as above; type: in vivo, mouse; conditions: both sexes, C57BL/6-Nr1i2tm1(NR1I2)Arte (hPXR mice), mouse, 500 μM, 5 doses (60 h), individual mice
# Method: as §1, §2, §3, §4
# hPXR mice = experiment: as above; type: in vivo, mouse; conditions: for mdr1 fold expression / Cyp3a11 fold expression: Fig 4f
# Method: as §1, §2, §3, §4
# C57BL/6 mice = experiment: 10 Day (acute) toxicity study in mice; type: in vivo, mouse
# Method: The LS180 cell line was used to assess cell cytotoxicity using the MTT (3‐(4,5‐dimethylthiazolyl‐2)‐2,5‐diphenyltetrazolium bromide) assay as previously described (Bartonkova et al, 2015, 2016). […] FKK6 was selected as a lead compound for assessment, given that it had the more favorable PXR‐selective ligand activity in cells. […] The mice were gavaged for ten consecutive days and necropsied on day 12 with the collection of blood (serum). […] Similarly, a 30‐day toxicity test was conducted in mice using FKK6 at an oral dose of 200 μM in 0.8% DMSO per day. We chose this dose to stay within the safe DMSO dose administered to mice over 30 days. On day 30, we necropsied the mice and collected blood (serum).
# PKAC-alpha = PKAC-alpha (Homo sapiens, UniProt P17612); experiment: KINOMEscan select kinase screen; type: binding; conditions: two experiments
# Method: (§5) Kinase Assays. The kinase inhibition assays were conducted by DiscoverX on a platform assay by Ambit BioSciences as described previously 16,17. FKK6 was screened at a single concentration of 10 […]
# (§6) The assays measure a compound’s ability to inhibit binding of a canonical ligand substrate, with 0% activity of control corresponding to full inhibition and 100% activity of control to no inhibition. […]
# PKAC-beta = PKAC-beta (Homo sapiens, UniProt P22694); experiment: KINOMEscan select kinase screen; type: binding; conditions: two experiments
# Method: as §5, §6
# [1] = 500 μM, 5 doses (60 h), individual mice
smiles,measurement,setting,value
C#CCC(O)(c1ccncc1)c1cc2ccccc2n1S(=O)(=O)c1ccccc1 (stereo not drawn) [FKK6],"fold induction at 60 h, 500 µM","Cyp3a11; in vivo, read-out: Cyp3a11 fold induction, Liver",1.81
same,"fold induction at 60 h, 500 µM","Cyp3a11; in vivo, read-out: Cyp3a11 fold induction, Small Intestine",1.85
same,"fold induction at 60 h, 500 µM","Cyp3a11; large intestine, oral, read-out: Cyp3a11 fold induction, Large Intestine",0.87
same,"fold induction at 60 h, 500 µM","Cyp3a11; liver, oral, read-out: Cyp3a11 fold induction, Liver",0.75
same,"fold induction at 60 h, 500 µM","Cyp3a11; small intestine, oral, read-out: Cyp3a11 fold induction, Small Intestine",0.85
same,"fold induction at 60 h, 500 µM","mdr1; in vivo, read-out: mdr1 fold induction, Large Intestine",1.85
same,"fold induction at 60 h, 500 µM","mdr1; large intestine, oral, read-out: mdr1 fold induction, Large Intestine",1.96
same,"fold induction at 60 h, 500 µM","mdr1; small intestine, oral, read-out: mdr1 fold induction, Small Intestine",1.84
same,"Cyp3a11 fold induction, Large Intestine",hPXR mice; [1],0.5 fold
same,"Cyp3a11 fold induction, Liver",hPXR mice; [1],0.51 fold
same,"Cyp3a11 fold induction, Small Intestine",hPXR mice; [1],0.81 fold
same,"mdr1 fold induction, Large Intestine",hPXR mice; [1],2.03 fold
same,"mdr1 fold induction, Liver",hPXR mice; [1],distinct increase and 4.6 fold and 5.65 fold and 2.73 fold
same,"mdr1 fold induction, Small Intestine",hPXR mice; [1],1.7 fold and 2.02 fold
same,mdr1 fold expression,hPXR mice; Large Intestine,2.55 fold
same,Cyp3a11 fold expression,hPXR mice; Liver,2.01 fold and 1.78 fold and 1.23 fold
same,mdr1 fold expression,hPXR mice; Liver,0.93 fold and 1.05 fold and 1.28 fold
same,Cyp3a11 fold expression,hPXR mice; Small Intestine,3.71 fold and 3.81 fold and 4.42 fold
same,mdr1 fold expression,hPXR mice; Small Intestine,1.46 fold and 1.56 fold and 1.59 fold
same,serum chemistry profiles,"C57BL/6 mice; 500 μM in 10% DMSO per day, gavage, ten days",did not alter
same,tissue pathology vs vehicle,"C57BL/6 mice; 500 μM in 10% DMSO per day, gavage, ten days, necropsy day 12",did not significantly impact tissue pathology
same,Histopathology: Kidney,"C57BL/6 mice; 10 day, n=6",Degenerative tubules/vacuoles (rare) (n=6)
same,Histopathology: Liver,"C57BL/6 mice; 10 day, n=6",Mild periportal inflammation (n=5)
same,Histopathology: Lung,"C57BL/6 mice; 10 day, n=6",Mild leukocytes (n=2)
same,Histopathology: Spleen,"C57BL/6 mice; 10 day, n=6",Mild lymphoid hyperplasia (n=2)
"O=C(c1ccncc1)c1cc2ccccc2n1S(=O)(=O)c1ccccc1 [FKK5, (1-(phenylsulfonyl)-1H-indol-2-yl)(pyridin-4-yl)methanone]",remaining binding at 10 µM,"PKAC-alpha; 10000 nM, read-out: %Ctrl",100%
same,%Ctrl,"PKAC-alpha; 25000 nM, 25 µM",95 %Ctrl
same,remaining binding at 25 µM,"PKAC-alpha; 25000 nM, read-out: %Ctrl",85%
same,%Ctrl,"PKAC-beta; 10000 nM, 10 µM",100 %Ctrl and 57 %Ctrl
same,%Ctrl,"PKAC-beta; 25000 nM, 25 µM",92 %Ctrl and 48 %Ctrl
